Results on two compounds are retold here after publication PMC8546428, “Convergent olfactory trace amine-associated receptors detect biogenic polyamines with distinct motifs via a conserved binding site” (The Journal of Biological Chemistry, 2021).

Numbering of substitutions follows the chain as printed. A value given as a limit tells only on which side of the number the result lay.

For one test, the target named is T1, mTAAR9 Y6.51W (Mus musculus, UniProt Q5QD04, Y274W).
T1 construct: expressed in transfected cells; host or cells: Hana3A (HEK293-derived)
T1 sequence (Q5QD04 1-348 Y274W): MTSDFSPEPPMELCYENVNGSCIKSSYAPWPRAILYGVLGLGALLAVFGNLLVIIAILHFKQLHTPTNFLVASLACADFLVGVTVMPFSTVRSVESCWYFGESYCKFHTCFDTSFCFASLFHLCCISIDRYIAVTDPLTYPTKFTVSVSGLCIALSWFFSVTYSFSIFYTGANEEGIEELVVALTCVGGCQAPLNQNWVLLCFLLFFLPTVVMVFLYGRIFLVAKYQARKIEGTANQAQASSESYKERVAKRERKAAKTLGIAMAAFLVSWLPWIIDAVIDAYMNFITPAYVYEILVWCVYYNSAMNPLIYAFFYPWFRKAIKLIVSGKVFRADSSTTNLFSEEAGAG
Nature of the test: CRE-luciferase reporter assay, mTAAR9 mutant in Hana3A. The class given is cell-based. The settings on record: read-out: EC50 (mean ± S.D., n = 3).

The target in the next test is T2, mTAAR9 E7.36D (Mus musculus, UniProt Q5QD04, E294D).
T2 construct: expressed in transfected cells; host or cells: Hana3A (HEK293-derived)
T2 sequence (Q5QD04 1-348 E294D): T1 sequence (Q5QD04 1-348 Y274W) with W274Y, E294D
Described as above. The class given is cell-based. The note with it: read-out: EC50 (mean ± S.D., n = 3).

Another test deals with T3, mTAAR9 W7.40F (Mus musculus, UniProt Q5QD04, W298F).
T3 construct: expressed in transfected cells; host or cells: Hana3A (HEK293-derived)
T3 sequence (Q5QD04 1-348 W298F): T1 sequence (Q5QD04 1-348 Y274W) with W274Y, W298F
The test is described as above. The format is cell-based. The note with it: read-out: EC50 (mean ± S.D., n = 3).

For the next test, the target named is T4, mTAAR9 W7.40Y (Mus musculus, UniProt Q5QD04, W298Y).
T4 construct: expressed in transfected cells; host or cells: Hana3A (HEK293-derived)
T4 sequence (Q5QD04 whole entry W298Y): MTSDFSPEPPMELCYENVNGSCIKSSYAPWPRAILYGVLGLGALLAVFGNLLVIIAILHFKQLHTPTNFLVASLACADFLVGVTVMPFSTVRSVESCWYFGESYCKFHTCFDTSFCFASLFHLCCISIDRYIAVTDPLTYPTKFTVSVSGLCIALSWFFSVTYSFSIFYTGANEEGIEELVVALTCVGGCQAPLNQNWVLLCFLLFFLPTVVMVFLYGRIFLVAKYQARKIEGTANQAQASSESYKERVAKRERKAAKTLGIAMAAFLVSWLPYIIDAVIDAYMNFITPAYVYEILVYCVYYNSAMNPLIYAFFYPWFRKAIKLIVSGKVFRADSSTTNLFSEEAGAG
Described as above. The format is cell-based. The settings on record: read-out: EC50 (mean ± S.D., n = 3).

Another test addresses T5, mTAAR9 W7.40A (Mus musculus, UniProt Q5QD04, W298A).
T5 construct: expressed in transfected cells; host or cells: Hana3A (HEK293-derived)
T5 sequence (Q5QD04 1-348 W298A): T1 sequence (Q5QD04 1-348 Y274W) with W274Y, W298A
The test is described as above. The class given is cell-based. The settings on record: read-out: EC50 (mean ± S.D., n = 3).

A further test has as its target T6, sTAAR365 T7.42A (Petromyzon marinus, UniProt A0A678XMK4, T298A).
T6 sequence (A0A678XMK4 1-365 T298A): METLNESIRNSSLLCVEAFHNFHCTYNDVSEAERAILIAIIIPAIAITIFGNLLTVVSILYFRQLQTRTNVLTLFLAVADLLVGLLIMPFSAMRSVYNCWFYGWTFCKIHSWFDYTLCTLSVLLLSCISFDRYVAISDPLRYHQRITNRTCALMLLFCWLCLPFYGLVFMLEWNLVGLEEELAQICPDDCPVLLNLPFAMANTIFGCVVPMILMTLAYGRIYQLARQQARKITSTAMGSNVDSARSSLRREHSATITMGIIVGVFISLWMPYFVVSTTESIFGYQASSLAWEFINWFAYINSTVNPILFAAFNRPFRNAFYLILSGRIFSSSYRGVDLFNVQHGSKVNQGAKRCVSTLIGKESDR

For another test, the target named is sTAAR365 Y7.43A (Petromyzon marinus, UniProt A0A678XMK4, Y299A). As to the kind of experiment: cell-based.
Chain of sTAAR365 Y7.43A (A0A678XMK4 whole entry Y299A): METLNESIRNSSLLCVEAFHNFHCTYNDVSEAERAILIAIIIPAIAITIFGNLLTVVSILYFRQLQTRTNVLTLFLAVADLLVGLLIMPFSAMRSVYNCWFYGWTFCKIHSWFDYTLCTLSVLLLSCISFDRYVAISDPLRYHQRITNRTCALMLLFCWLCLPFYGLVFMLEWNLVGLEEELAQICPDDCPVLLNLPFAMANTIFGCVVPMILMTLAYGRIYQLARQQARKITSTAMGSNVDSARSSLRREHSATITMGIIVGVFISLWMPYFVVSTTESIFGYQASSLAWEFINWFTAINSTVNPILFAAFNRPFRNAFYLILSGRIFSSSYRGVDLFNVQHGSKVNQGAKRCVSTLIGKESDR
In another test the target is sTAAR365 Y7.43Q (Petromyzon marinus, UniProt A0A678XMK4, Y299Q). As to the kind of experiment: cell-based.
Chain of sTAAR365 Y7.43Q (A0A678XMK4 whole entry Y299Q): as the sequence (A0A678XMK4 whole entry Y299A) above, with A299Q counted along it
The next test has as its target sTAAR365 Y7.43S (Petromyzon marinus, UniProt A0A678XMK4, Y299S). Nature of the test: cell-based.
Another test relates to sTAAR365 Y6.51A. As to the kind of experiment: cAMP TR-FRET assay, sTAAR365 mutant in HEK293T. The format is cell-based, sea lamprey. The note with it: cAMP production. From the text: All mutants were verified by DNA sequencing.
The target in another test is T7, sTAAR365 Y6.51L (Petromyzon marinus, UniProt A0A678XMK4, Y272L).
T7 sequence (A0A678XMK4 1-365 Y272L): T6 sequence (A0A678XMK4 1-365 T298A) with Y272L, A298T
The note with it: HEK293T, cAMP production. For orientation: Changes in cAMP serve as a functional read-out for many G protein-coupled receptors.

As a reminder, the EC50 is the concentration giving half of the maximal effect.

Chain of sTAAR365 Y7.43S (A0A678XMK4 whole entry Y299S): as the sequence (A0A678XMK4 whole entry Y299A) above, with A299S counted along it

For the compound `NCCCCCN` [cadaverine], the EC50 is > 1000 µM on mTAAR9 Y6.51W; > 1000 µM at mTAAR9 E7.36D; 83 ± 35 µM at mTAAR9 W7.40F; 28 ± 8 µM on mTAAR9 W7.40Y; > 1000 µM at mTAAR9 W7.40A; 144 ± 11 µM on sTAAR365 Y7.43A. For the same compound, the EC50 was 7 ± 0.3 µM on sTAAR365 Y7.43Q and 124 ± 9 µM at sTAAR365 Y7.43S. The “increase of EC50 vs wild-type sTAAR365” value at sTAAR365 T7.42A is reported as “over three”.

`NCCCCN` [putrescine]: the “EC50 (mean ± S.D., n = 3)” value with sTAAR365 Y6.51A and at sTAAR365 Y6.51L was “loss” each time.
